Laboratory results reported in patent US9370521B2, “Targeting GLI proteins in human cancer by small molecules” (The Regents of the University of California, priority 2011, dated 2016).

Tests used:
melanoma MelJuso = assay: In vivo efficacy, Mouse Xenograft Model (melanoma MelJuso); conditions: 50 mg/kg i.p. daily for 14 days, FIG. 1
Method: (§1) The administered compounds were tested in vivo in the mouse xenograft model bearing human cancer cells. Briefly, female athymic nude mice strain NCRNU-M (5-10 weeks old, 20-25 grams in weight; Taconic, Germantown, N.Y.) was maintained in pathogen-free conditions. Three human cancer cell lines: NSCLC A549, melanoma MelJuso, and mesothelioma MS-1 were used. Five or ten mice were used in each group and injected s.c. with 3×10^6 cancer cells in the dorsal area in a volume of 100 μl. After inoculation, human cancer cells were allowed to grow in mice for 10-13 days to become visible tumor nodules. Animals were then injected with a compound of the embodiments at a dose of 50 mg/kg body weight (1 mg/mouse per day). Vehicle alone was used as control. The compounds and controls were adjusted in 40 ul volume for i.p. injection in the abdomens of the mice. Injections were performed daily around the same time for 14 days. Tumors were allowed to grow for 1-2 additional weeks after completion of the compound treatments. Tumor size was measured every three to four days, and tumor volumes were calculated using width (x) and length (y) (x^2y/2, where x<y). Throughout this period, general toxicity of the treatments was also monitored by measuring body weight of the mice. Data was presented as mean values (±S.D.).
In vivo efficacy study of Compounds 1, 2, 4, and 6 were performed using a Mouse Xenograft Model (Melanoma MelJuso). Mice were injected s.c. with 3×10^6 cells in the dorsal area in a volume of 100 μl. 13 days after inoculation, the mice started receiving treatments with the administered compound at a dose of 50 mg/kg body weight daily for 14 days (n=10). Vehicle alone was used as control (n=10). The administered compounds and vehicle were adjusted in a volume of 40 μl for i.p. injection in the abdomens of the mice. Tumor size and tumor volumes were calculated as described above.

mesothelioma MS-1 = assay: In vivo efficacy, Mouse Xenograft Model (mesothelioma MS-1); conditions: MS-1 xenograft, 50 mg/kg i.p. daily for 14 days, vs control group, FIG. 2
Method: as §1, with “Data was presented as mean values (±S.D.).” left out
Model (Mesothelioma MS-1). […] Tumor sizes was measured twice weekly until the completion of the experiments. […]

NSCLC A549 = assay: In vivo efficacy, Mouse Xenograft Model (lung cancer A549); conditions: 50 mg/kg i.p. daily for 14 days then another 7 days, tumors weighed day 43, vs control group, FIG. 3
Method: as §1, with “Tumors were allowed to grow for 1-2 additional weeks after completion of the compound treatments.” left out, “Data was presented as mean values (±S.D.).” left out
In vivo efficacy study of Compounds 1 and 4 in Mouse Xenograft Model (NSCLC A549) was examined. […] 43 days after the initial tumor inoculation, tumors were dissected from the mice of each group and their weights were measured using a scale. […]

[1] = Additional toxicity study: body weight at different doses; type: in vivo, mouse; conditions: mice, i.p. 25, 50 and 100 mg/kg for 6 consecutive days, FIG. 7
Method: Each dosing group contained 3 mice. The body weight of mice was measured using a scale. Results are the means±SD (error bars).
As preliminary in vivo toxicity study of Compounds 1, 2, 4, and 6, it was examined if there were changes of leukocyte population and loss of body weight in the mice after the treatment. At the completion of the in vivo studies as described herein, leukocytes (WBC: white blood cell, NE: neutrophil, LY: lymphocyte, MO: monocyte, EO: eosinophil, BA: basophil) from each animal from all treatment groups were collected and leukocyte population was counted through a blood cell counter. Body weights of control groups (n=10) and the treated group (n=10) were measured using a scale during the course of drug administration. […] In an additional toxicity study, effect of different doses of compounds 4 and 6 on the body weight of mice was examined. The compounds were i.p. injected in the abdomens at 3 different doses: 25, 50, and 100 mg/kg body weight to mice (3 mice per dosing group) for 6 consecutive days.

For CCCC1C(C(=O)NCCCC(C)(C)CO)C(c2ccc(F)cc2)=NN1c1ccccc1 (centres unmarked) [Compound 4, 3-(4-fluoro-phenyl)-1-phenyl-5-propyl-4,5-dihydro-1H-pyrazole-4-carboxylic acid (5-hydroxy-4,4-dimethyl-pentyl)-amide], the “Tumor weight after treatment” value (melanoma MelJuso) was “significantly decreased”, the “Tumor growth after treatment” value (melanoma MelJuso; vs vehicle) was “dramatically suppressed” and the “Tumor weight after treatment” value (mesothelioma MS-1) was “significantly decreased”. The “Tumor weight after treatment” value (NSCLC A549) was “significantly decreased” and the “Loss of body weight” value [1] was “no noticeable loss”.
